From patent US10968183B2, “Small molecule FIEL1 inhibitor in inflammatory and fibrotic lung injury” (UNIVERSITY OF PITTSBURGH—OF THE COMMONWEALTH SYSTEM OF …, priority 2015, dated 2021)

Legend:
PIAS4 = PIAS4 protein half-life study (cycloheximide) in MLE cells; type: cell-based, murine; conditions: compound 5 μM for 18 h; FIG. 15F
Source text: FIG. 9A. PIAS4 protein half-life study in MLE cells transfected with Empty plasmid or Ubiquitin plasmid. FIG. 9B. PIAS4 protein half-life study with MG132 or Leupeptin. FIG. 9C. Immunoblots showing levels of PIAS4 proteins and V5 after ectopic FIEL1 or UBE3B plasmid expression. FIG. 9D. Immunoblots showing levels of FIEL1 proteins after ectopic FIEL1 plasmid expression in MLE, HeLa, and 293T cells. FIG. 9E. Immunoblots showing levels of PIAS4 proteins and V5 after ectopic FIEL1 plasmid expression in HeLa and 293T cells. FIG. 9F. MLE cells were transfected with an inducible control or FIEL1 plasmid under control of exogenous doxycycline. Cells were treated with doxycycline in a dose dependent manner. Cells were then collected and cell lysates were immunoblotted for FIEL1 and PIAS4. FIG. 9G. MRC5 cells were exposed to TGFβ for 24 h before being assayed for PIAS4 and FIEL1 protein half-lives.
FIG. 15A. Diagram of the BC-1485 synthesis process. FIGS. 15B-15C. Docking studies of the lead compound, BC-1485, interacting with the FIEL1-HECT domain. FIG. 15D. MRC5 cells were treated with the compound at various doses; cells were also co-treated with TGFβ at 2 ng/ml. 18 h later, cells were collected and assayed for α-SMA expression. FIG. 15E. MRC5 cells were seeded in 35 mm glass bottom dishes before co-treatment with TGFβ at 2 ng/ml and BC-1480 or BC1485 at 5μM. FIG. 15F. PIAS4 protein half-life determination after BC-1480 or BC1485 treatment at 5μM for 18 h. FIG. 15G. PIAS4 and KIAA0317 mRNA analysis after BC1485 treatment for 18 h.
MLE cells were cultured in Dulbecco's Modified Eagle Medium-F12 (Gibco) supplemented with 10% fetal bovine serum (DMEM-10). 293T cells were cultured in Dulbecco's Modified Eagle Medium (Gibco) supplemented with 10% fetal bovine serum (DMEM-10). MRC5 cells were cultured in Eagle's Minimum Essential Medium (Gibco) supplemented with 10% fetal bovine serum (EMEM-10). For protein expression in MLE cells, nucleofection was used following Amaxa's protocol. For protein overexpression in 293T cells, Fugene6HD transfection reagents were used following the manufacturer's protocol. […]

[1] = tested on: DSS induced acute colonic inflammation in C57BL6 mice; test: Dextran sulfate sodium induced acute colonic inflammation in mice; type: in vivo; conditions: 2.5% DSS in water up to 7 days; drinking water 30 ug/ml, ~5 mg/kg/d
Procedure: C57BL6 mice were fed with water ad lib containing 2.5% dextran sulfate sodium (DSS) for up to 7 days. Mice were treated with either vehicle (control) or BC-1261 (administered into drinking water at 30 ug/ml, ˜5 mg/kg/d dosing). Colonic tissues were also analysed for TNFα, IL1 and IL6 shown in FIGS. 20E H&E staining was performed on colonic sections. The data in FIG. 20F represent n=6 mice/group, *P<0.05 versus DSS and **P<0.05 versus control. […] FIG. 20G provides pictures of the tissues at interest.
C57BL6 mice were fed with water ad lib containing 2.5% dextran sulfate sodium (DSS) for up to 7 days. Mice were treated with either vehicle (control) or BC-1261 (administered into drinking water at 30 ug/ml, ˜5 mg/kg/d dosing). Mice were then euthanized, the length of the colon and weight of the spleen were measured and graphed, shown in FIG. 20 B-D. Colonic tissues were also analysed for TNFα, IL1 and IL6 shown in FIG. 20E H&E staining was performed on colonic sections. The data in FIG. 20F represent n=6 mice/group, *P<0.05 versus DSS and **P<0.05 versus control.

`CC(NC(=O)c1ccc(NS(=O)(=O)c2ccc3[nH]c(=O)[nH]c3c2)cc1)C(=O)N(C)C` (centres unmarked) [BC-1485] was tested, and the PIAS4 protein half-life (PIAS4) was “stabilized PIAS4 by extending its half-life” and the “DSS induced acute colonic inflammation” value [1] was “effectively reduces”.
